Test results: US10487068B2, “Pyridazine derivatives as RORc modulators” (Genentech, Inc., priority 2015, dated 2019)

Each molecule was assayed against T1, RORc ligand binding domain (Homo sapiens, UniProt P51449) (assay: In Vitro RORc Ligand Binding Assay). Details: RORc IC50, radioligand 25-[3H]hydroxycholesterol 6 nM; 0.6 ug/mL RORc receptor; 3 h at 25° C.
T1 sequence (P51449 269-508 limits assumed): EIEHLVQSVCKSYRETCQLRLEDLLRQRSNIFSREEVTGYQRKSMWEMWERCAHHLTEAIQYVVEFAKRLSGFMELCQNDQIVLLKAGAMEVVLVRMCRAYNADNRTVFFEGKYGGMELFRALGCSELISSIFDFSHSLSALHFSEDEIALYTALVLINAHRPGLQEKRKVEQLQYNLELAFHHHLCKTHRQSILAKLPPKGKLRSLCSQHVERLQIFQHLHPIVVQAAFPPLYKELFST
CC(C)(O)c1noc(-c2cccc([C@@]34CC[C@@H](c5cc(-c6c(F)cccc6F)nnc53)C4(C)C)n2)n1 [Example 314, 2-(5-(6-((5R,8S)-3-(2,6-difluorophenyl)-9,9-dimethyl-5,6,7,8-tetrahydro-5,8-methanocinnolin-8-yl)pyridin-2-yl)-1,2,4-oxadiazol-3-yl)propan-2-ol] gave an IC50 of 1.5 nM. For CC1(C)[C@H]2CC[C@]1(c1cncc(OCC(N)=O)n1)c1nnc(-c3c(F)cccc3F)cc12 [Example 315, 2-((6-((5R,8S)-3-(2,6-difluorophenyl)-9,9-dimethyl-5,6,7,8-tetrahydro-5,8-methanocinnolin-8-yl)pyrazin-2-yl)oxy)acetamide], the IC50 was 94.1 nM. Work on CC(C)(O)COc1cncc([C@@]23CC[C@@H](c4cc(-c5c(F)cccc5F)nnc42)C3(C)C)n1 [Example 316, 1-((6-((5R,8S)-3-(2,6-difluorophenyl)-9,9-dimethyl-5,6,7,8-tetrahydro-5,8-methanocinnolin-8-yl)pyrazin-2-yl)oxy)-2-methylpropan-2-ol] yielded an IC50 of 36.4 nM. With CC1(C)[C@H]2CC[C@]1(c1cccc(-c3nc(C4(O)CC4)n[nH]3)n1)c1nnc(-c3c(F)cccc3F)cc12 [Example 317, 1-(5-(6-((5R,8S)-3-(2,6-difluorophenyl)-9,9-dimethyl-5,6,7,8-tetrahydro-5,8-methanocinnolin-8-yl)pyridin-2-yl)-1H-1,2,4-triazol-3-yl)cyclopropanol] the IC50 was 9.2 nM. CC[C@@H](O)c1n[nH]c(-c2cccc([C@@]34CC[C@@H](c5cc(-c6c(F)cccc6F)nnc53)C4(C)C)n2)n1 [Example 318, (R)-1-(5-(6-((5R,8S)-3-(2,6-difluorophenyl)-9,9-dimethyl-5,6,7,8-tetrahydro-5,8-methanocinnolin-8-yl)pyridin-2-yl)-1H-1,2,4-triazol-3-yl)propan-1-ol] was tested, and the IC50 was 10.8 nM. With CC1(C)[C@H]2CC[C@]1(c1cccc(-c3nc(C4(O)COC4)n[nH]3)n1)c1nnc(-c3c(F)cccc3F)cc12 [Example 320, 3-(5-(6-((5R,8S)-3-(2,6-difluorophenyl)-9,9-dimethyl-5,6,7,8-tetrahydro-5,8-methanocinnolin-8-yl)pyridin-2-yl)-1H-1,2,4-triazol-3-yl)oxetan-3-ol] the IC50 was 9 nM. Molecule CC1(C)[C@H]2CC[C@]1(c1cccc(-c3nc(CS(C)(=O)=O)n[nH]3)n1)c1nnc(-c3c(F)cccc3F)cc12 [Example 321] has an IC50 of 12.7 nM. In the case of CC[C@H](O)c1n[nH]c(-c2cccc([C@@]34CC[C@@H](c5cc(-c6c(F)cccc6F)nnc53)C4(C)C)n2)n1 [Example 322, (S)-1-(5-(6-((5R,8S)-3-(2,6-difluorophenyl)-9,9-dimethyl-5,6,7,8-tetrahydro-5,8-methanocinnolin-8-yl)pyridin-2-yl)-1H-1,2,4-triazol-3-yl)propan-1-ol], the IC50 is reported as 11.5 nM. For CC1(C)[C@H]2CC[C@]1(c1ccnc(-n3cnc(CC(N)=O)n3)n1)c1nnc(-c3c(F)cccc3F)cc12 [Example 323], the IC50 was 11.2 nM. CC(C)(O)Cc1ccn(-c2nccc([C@@]34CC[C@@H](c5cc(-c6c(F)cccc6F)nnc53)C4(C)C)n2)n1 [Example 324] gave an IC50 of 9.5 nM. CC1(C)[C@H]2CC[C@]1(c1cncc(-c3nc(C(N)=O)co3)n1)c1nnc(-c3c(F)cccc3F)cc12 [Example 325, 2-(6-((5R,8S)-3-(2,6-difluorophenyl)-9,9-dimethyl-5,6,7,8-tetrahydro-5,8-methanocinnolin-8-yl)pyrazin-2-yl)oxazole-4-carboxamide] gave an IC50 of 6.7 nM. With CC1(C)[C@H]2CC[C@]1(c1cncc(-c3nc(C(=O)NCCO)co3)n1)c1nnc(-c3c(F)cccc3F)cc12 [Example 326, 2-(6-((5R,8S)-3-(2,6-difluorophenyl)-9,9-dimethyl-5,6,7,8-tetrahydro-5,8-methanocinnolin-8-yl)pyrazin-2-yl)-N-(2-hydroxyethyl)oxazole-4-carboxamide] the IC50 was 10.1 nM. CC1(C)[C@H]2CC[C@]1(c1ccnc(N3CCOCC3)n1)c1nnc(-c3c(F)cccc3F)cc12 [Example 328] gave an IC50 of 2.2 nM. Molecule CC1(C)[C@H]2CC[C@]1(c1ccnc(N3CCCC3)n1)c1nnc(-c3c(F)cccc3F)cc12 [Example 329] has an IC50 of 2.8 nM. Work on CC1(C)[C@H]2CC[C@]1(c1ccnc(N3CC[C@H](O)C3)n1)c1nnc(-c3c(F)cccc3F)cc12 [Example 330] yielded an IC50 of 4.6 nM. In the case of CC1(C)[C@H]2CC[C@]1(c1ccnc(OCCO)n1)c1nnc(-c3c(F)cccc3F)cc12 [Example 333], the IC50 is reported as 4.8 nM. CC1(C)[C@H]2CC[C@]1(c1ccnc(N3CCO[C@@H](CO)C3)n1)c1nnc(-c3c(F)cccc3F)cc12 [Example 334] showed an IC50 of 5 nM. Molecule CC1(C)[C@H]2CC[C@]1(c1ccnc(N3CCO[C@H](CO)C3)n1)c1nnc(-c3c(F)cccc3F)cc12 [Example 335] has an IC50 of 6.2 nM. Work on CC1(C)[C@H]2CC[C@]1(c1ccnc(N3CC4(CCO4)C3)n1)c1nnc(-c3c(F)cccc3F)cc12 [Example 336] yielded an IC50 of 13 nM. CC1(C)[C@H]2CC[C@]1(c1ccnc(N3CCNC(=O)C3)n1)c1nnc(-c3c(F)cccc3F)cc12 [Example 337] gave an IC50 of 6 nM. With CC1(C)[C@H]2CC[C@]1(c1ccnc(N3CCN(S(C)(=O)=O)CC3)n1)c1nnc(-c3c(F)cccc3F)cc12 [Example 338] the IC50 was 3.2 nM. CC1(C)[C@H]2CC[C@]1(c1cccc(-c3nc([C@@H](O)C(F)(F)F)n[nH]3)n1)c1nnc(-c3c(F)cccc3F)cc12 [Example 339, (R)-1-(5-(6-((5R,8S)-3-(2,6-difluorophenyl)-9,9-dimethyl-5,6,7,8-tetrahydro-5,8-methanocinnolin-8-yl)pyridin-2-yl)-1H-1,2,4-triazol-3-yl)-2,2,2-trifluoroethanol] gave an IC50 of 5.6 nM. CC1(C)[C@H]2CC[C@]1(c1cccc(-c3nc([C@H](O)C(F)(F)F)n[nH]3)n1)c1nnc(-c3c(F)cccc3F)cc12 [Example 340, (S)-1-(5-(6-((5R,8S)-3-(2,6-difluorophenyl)-9,9-dimethyl-5,6,7,8-tetrahydro-5,8-methanocinnolin-8-yl)pyridin-2-yl)-1H-1,2,4-triazol-3-yl)-2,2,2-trifluoroethanol] showed an IC50 of 3.6 nM. For CC1(C)[C@H]2CC[C@]1(c1cncc(-c3nc(C#N)co3)n1)c1nnc(-c3c(F)cccc3F)cc12 [Example 341, 2-(6-((5R,8S)-3-(2,6-difluorophenyl)-9,9-dimethyl-5,6,7,8-tetrahydro-5,8-methanocinnolin-8-yl)pyrazin-2-yl)oxazole-4-carbonitrile], the IC50 was 3.4 nM. CC(C)(O)c1cnc(-c2cncc([C@@]34CC[C@@H](c5cc(-c6c(F)cccc6F)nnc53)C4(C)C)n2)o1 [Example 342, 2-(2-(6-((5R,8S)-3-(2,6-difluorophenyl)-9,9-dimethyl-5,6,7,8-tetrahydro-5,8-methanocinnolin-8-yl)pyrazin-2-yl)oxazol-5-yl)propan-2-ol] gave an IC50 of 11.7 nM. In the case of C=C(C)c1cnc(-c2cncc([C@@]34CC[C@@H](c5cc(-c6c(F)cccc6F)nnc53)C4(C)C)n2)o1 [Example 343, 2-(6-((5R,8S)-3-(2,6-difluorophenyl)-9,9-dimethyl-5,6,7,8-tetrahydro-5,8-methanocinnolin-8-yl)pyrazin-2-yl)-5-(prop-1-en-2-yl)oxazole], the IC50 is reported as 1.6 nM. With CC(C)(C)OC(=O)N1CC=C(c2nccc([C@@]34CC[C@@H](c5cc(-c6c(F)cccc6F)nnc53)C4(C)C)n2)CC1 [Example 344] the IC50 was 1.7 nM. Work on CC(C)(C)OC(=O)N1CCC(c2nccc([C@@]34CC[C@@H](c5cc(-c6c(F)cccc6F)nnc53)C4(C)C)n2)CC1 [Example 345] yielded an IC50 of 13 nM.
